Assay results from US9174979B2, “Phenanthroindolizidine compound and NFκB inhibitor containing same as active ingredient” (KABUSHIKI KAISHA YAKULT HONSHA, priority 2008, dated 2015).
Converted amounts (≈) assume the structure as drawn. Like-named read-outs stand apart in the source and are kept apart here.

Columns and labels:
[1] = tested on: NFκB; assay: NFκB luciferase reporter assay in SW480/NRE-Luc cells stimulated with TNFα; type: cell-based, human; conditions: for IC50: Homo sapiens
Excerpt: (§1) The action of the phenanthroindolizidine alkaloid compound of the present invention on the NFκB activity was studied in a luciferase assay. Human colon cancer SW480 cells were transfected with pNFκB-Luc Plasmid (Stratagene), which is a reporter vector in which a five-time tandem repeat of the NFκB responsive element (NRE) is integrated into the upstream of the luciferase gene, using Lipofectamine 2000 (Invitrogen Corporation) in accordance with the attached operating procedure. Subsequently, the cells were cultured in an RPMI1640 medium containing 10% FBS, 100 U/mL penicillin, 100 μg/mL streptomycin, and 0.5 mg/mL G418 to produce SW480 cells having the luciferase gene, the expression of which is regulated by NRE, stably introduced therein (SW480/NRE-Luc cells). Likewise, SW480 cells were transfected with pGL3-Control Vector (Promega Corporation), which is a reporter vector in which the SV40 promoter is integrated into the upstream of the luciferase gene, to produce SW480 cells having the luciferase gene, the expression of which is regulated by the SV40 promoter, stably introduced therein (SW480/SV40-Luc cells). The SW480/NRE-Luc cells or the SW480/SV40-Luc cells were suspended in an RPMI1640 medium containing 10% FBS, 100 U/mL penicillin, and 100 μg/mL streptomycin (10% FBS/RPMI1640), and then seeded in a 96-well microplate, followed by culturing under conditions of 5% CO2 and at 37° C. (5000 cells/well). After an overnight culture, the compound of the present invention was added, followed by culturing for one hour. Further, 50 ng/mL TNFα (Sigma-Aldrich Corporation) was added, followed by culturing for four hours. Subsequently, a Steady-Glo Luciferase Assay reagent (Promega Corporation) was added, and the luminescent intensity was detected by SpectraMax M5e (Molecular Devices, Inc.) to measure the intracellular luciferase activity. It is to be noted that the action of the compound of the present invention on the NFκB activity or the SV40 promoter activity was shown as IC50 values (the concentration of a test compound needed for 50% inhibition of the induction of the luciferase expression).

[2] = tested on: SV40 promoter; assay: SV40 promoter luciferase reporter assay in SW480/SV40-Luc cells; type: cell-based, human; conditions: for IC50: Homo sapiens
Excerpt: as §1

[3] = tested on: human colon cancer SW480 cells; assay: Inhibitory action on the proliferation of SW480 cells; type: cell-based; conditions: 48 hours culture, TetraColor ONE; for IC50: Homo sapiens, SW480
Description: (§2) The action of the phenanthroindolizidine alkaloid compound of the present invention on the proliferation of human colon cancer SW480 cells, HT-29 cells, and human non-small cell lung cancer A549 cells was studied. The SW480 cells were suspended in a 10% FBS/RPMI1640 and then seeded in a 96-well microplate, followed by culturing in 5% CO2 at 37° C. (2000 cells/well). The A549 cells and the HT-29 cells were each suspended in a DMEM medium containing 10% FBS, 100 U/mL penicillin, and 100 μg/mL streptomycin (10% FBS/DMEM) and a DMEM F-12 HAM medium containing 10% FBS, 100 U/mL penicillin, and 100 μg/mL streptomycin (10% FBS/DMEM F12 HAM), and then seeded in 96-well microplates, followed by culturing in 5% CO2 at 37° C. (1000 cells/well). After an overnight culture, the compound of the present invention was added, followed by further culturing for 48 hours (SW480 cells) and 96 hours (A549 cells and HT-29 cells). After culturing, the number of viable cells was counted using TetraColor ONE (Seikagaku Corporation) in accordance with the attached operating procedure. The results were expressed as the concentration of a test compound needed for 50% inhibition of the proliferation of the cells (IC50).

[4] = tested on: human colon cancer HT-29 cells; assay: Inhibitory action on the proliferation of HT-29 cells; type: cell-based; conditions: 96 hours culture, TetraColor ONE; for IC50: Homo sapiens, HT-29
Description: as §2

[5] = tested on: human non-small cell lung cancer A549 cells; assay: Inhibitory action on the proliferation of A549 cells; type: cell-based; conditions: 96 hours culture, TetraColor ONE; for IC50: Homo sapiens, A549
Description: as §2

[6] = tested on: mice; assay: Animal toxicity test in mice transplanted with Meth A cells; type: in vivo, mouse; conditions: intravenous on days 1, 5, 9, observed for three weeks
Description: Also, the toxicity of known phenanthroindolizidine alkaloid compounds in mice, namely (12aS,13S)-6,7-dimethoxy-9,10,11,12,12a,13-hexahydro-9a-aza-cyclopenta[b]triphenylene-3,13-diol (known compound 1; refer to WO01/023384) and (12aS,13S)-3,6,7-trimethoxy-9,10,11,12,12a,13-hexahydro-9a-aza-cyclopenta[b]triphenylene-13-ol (known compound 2; refer to Planta Med., 2002, 68: 186-188), was simultaneously studied. To a control group, a physiological saline solution as a solvent, was administered.

[7] = SW480, read-out: NFκB inhibitory activity IC50
[8] = SW480, read-out: SV40 promoter inhibitory activity IC50
[9] = SW480/NRE-Luc cells, 50 ng/mL TNFα, luciferase expression
[10] = SW480/SV40-Luc cells, luciferase expression

## COc1cc2c3c(c4ccc(O)cc4c2c(OC)c1OC)[C@H](O)[C@@H]1CCCN1C3.Cl [Compound 1, (12aS,13S)-5,6,7-trimethoxy-9,10,11,12,12a,13-hexahydro-9a-aza-cyclopenta[b]triphenylene-3,13-diol hydrochloride]
[1]; [7]
  IC50: 0.668 µg/mL
[2]; [8]
  IC50: > 10 µg/mL
[3]
  IC50: 1.97 µg/mL
[4]
  IC50: 0.637 µg/mL
[5]
  IC50: 0.56 µg/mL
[6]; total dose 25 mg/kg
  Mortality rate: 0/5
[6]; total dose 50 mg/kg
  Mortality rate: 0/5

## COc1cc2c3c(c4ccc(O)cc4c2c(OC)c1OC)[C@@H](O)[C@H]1CCCN1C3.Cl [Compound 2, (12aR,13R)-5,6,7-trimethoxy-9,10,11,12,12a,13-hexahydro-9a-aza-cyclopenta[b]triphenylene-3,13-diol hydrochloride]
[1]; [7]
  IC50: 0.001 µg/mL
[2]; [8]
  IC50: > 1 µg/mL
[3]
  IC50: 0.0036 µg/mL
[4]
  IC50: 0.0047 µg/mL
[5]
  IC50: 0.0025 µg/mL

## Cl.Oc1ccc2c3c(c4ccccc4c2c1)CN1CCC[C@H]1[C@H]3O [Compound 3, (12aS,13S)-9,10,11,12,12a,13-hexahydro-9a-aza-cyclopenta[b]triphenylene-3,13-diol hydrochloride]
[1]; [7]
  IC50: 0.173 µg/mL
[2]; [8]
  IC50: > 10 µg/mL
[3]
  IC50: 0.405 µg/mL
[4]
  IC50: 0.14 µg/mL
[5]
  IC50: 0.107 µg/mL
[6]; total dose 25 mg/kg
  Mortality rate: 0/5
[6]; total dose 50 mg/kg
  Mortality rate: 0/5

## Cl.Oc1ccc2c3c(c4ccc(F)cc4c2c1)CN1CCC[C@H]1[C@H]3O [Compound 4, (12aS,13S)-6-fluoro-9,10,11,12,12a,13-hexahydro-9a-aza-cyclopenta[b]triphenylene-3,13-diol hydrochloride]
[1]; [7]
  IC50: 0.286 µg/mL
[2]; [8]
  IC50: > 10 µg/mL
[3]
  IC50: 0.503 µg/mL
[4]
  IC50: 0.218 µg/mL
[5]
  IC50: 0.152 µg/mL

## COc1cc2c3c(c4ccc(O)cc4c2cc1OC)[C@H](OC(C)=O)[C@@H]1CCCN1C3.Cl [Compound 5, acetic acid(12aS,13S)-3-hydroxy-6,7-dimethoxy-9,10,11,12,12a,13-hexahydro-9a-aza-cyclopenta[b]triphenylene-13-yl ester hydrochloride]
[1]; [9]
  NFκB inhibitory activity IC50: 0.027 µg/mL
[2]; [10]
  SV40 promoter inhibitory activity IC50: >0.1 µg/mL
[3]
  SW480 proliferation inhibitory action IC50: 0.005 µg/mL
[4]
  HT-29 proliferation inhibitory action IC50: 0.0023 µg/mL
[5]
  A549 proliferation inhibitory action IC50: 0.0005 µg/mL
[6]; total dose 25 mg/kg
  Mortality rate: 0/5
[6]; total dose 50 mg/kg
  Mortality rate: 0/5

## COc1cc2c3c(c4ccc(O)cc4c2cc1OC)C(N)[C@@H]1CCCN1C3.Cl (stereo partly drawn) [Compound 7, (S)-13-amino-6,7-dimethoxy-9,10,11,12,12a,13-hexahydro-9a-aza-cyclopenta[b]triphenylene-3-ol hydrochloride]
[1]; [7]
  IC50: 0.468 µg/mL
[2]; [8]
  IC50: > 10 µg/mL
[3]
  IC50: 2.34 µg/mL
[4]
  IC50: 0.243 µg/mL
[5]
  IC50: 0.265 µg/mL

## CCOc1cc2c3c(c4ccc(O)cc4c2cc1OCC)C[C@@H]1CCCN1C3.Cl [Compound 14, (S)-6,7-diethoxy-9,10,11,12,12a,13-hexahydro-9a-aza-cyclopenta[b]triphenylene-3-ol hydrochloride]
[1]; [7]
  IC50: 0.0047 µg/mL
[2]; [8]
  IC50: > 1 µg/mL
[3]
  IC50: 0.0154 µg/mL
[4]
  IC50: 0.0121 µg/mL
[5]
  IC50: 0.0021 µg/mL

## COc1cc2c3c(c4ccc(O)c(Cl)c4c2cc1OC)C[C@@H]1CCCN1C3.CS(=O)(=O)O [Compound 22, (S)-4-chloro-6,7-dimethoxy-9,10,11,12,12a,13-hexahydro-9a-aza-cyclopenta[b]triphenylene-3-ol methanesulfonate]
[1]; [9]
  NFκB inhibitory activity IC50: 0.00041 µg/mL
[2]; [10]
  SV40 promoter inhibitory activity IC50: >0.1 µg/mL
[3]
  SW480 proliferation inhibitory action IC50: 0.0006 µg/mL
[4]
  HT-29 proliferation inhibitory action IC50: 0.0041 µg/mL
[5]
  A549 proliferation inhibitory action IC50: 0.00071 µg/mL

## COc1cc2c3c(c4cc(C)c(O)c(C)c4c2cc1OC)C[C@@H]1CCCN1C3.CS(=O)(=O)O [Compound 26, (S)-6,7-dimethoxy-2,4-dimethyl-9,10,11,12,12a,13-hexahydro-9a-aza-cyclopenta[b]triphenylene-3-ol methanesulfonate]
[1]; [9]
  NFκB inhibitory activity IC50: 0.0597 µg/mL
[2]; [10]
  SV40 promoter inhibitory activity IC50: >10 µg/mL
[3]
  SW480 proliferation inhibitory action IC50: 0.0321 µg/mL
[4]
  HT-29 proliferation inhibitory action IC50: 0.05 µg/mL
[5]
  A549 proliferation inhibitory action IC50: 0.1002 µg/mL

## COc1ccc2c3c(c4cc(OC)c(OC)cc4c2c1)CN1CCC[C@H]1[C@H]3O [Known Compound 2, (12aS,13S)-3,6,7-trimethoxy-9,10,11,12,12a,13-hexahydro-9a-aza-cyclopenta[b]triphenylene-13-ol, reference compound]
[6]; total dose 25 mg/kg, 25 mg/kg
  Mortality rate: 2/5
[6]; total dose 25 mg/kg, listed as known compound 2, 25 mg/kg
  Mortality rate: some of the mice also died
[6]; total dose 50 mg/kg, 50 mg/kg
  Mortality rate: 5/5
[6]; total dose 50 mg/kg, listed as known compound 2, 50 mg/kg
  Mortality rate: all the mice died

## COc1cc2c3c(c4ccc(O)cc4c2cc1OC)[C@H](O)[C@@H]1CCCN1C3 [Known compound 1, (12aS,13S)-6,7-dimethoxy-9,10,11,12,12a,13-hexahydro-9a-aza-cyclopenta[b]triphenylene-3,13-diol, reference compound]
[6]; total dose 25 mg/kg
  Mortality rate: 0/5
[6]; total dose 50 mg/kg, 50 mg/kg
  Mortality rate: 5/5
[6]; total dose 50 mg/kg, listed as known compound 1, 50 mg/kg
  Mortality rate: all the mice died

## S=C(S)N1CCCC1 [PDTC, pyrrolidine dithiocarbamate, reference compound]
[1]; SW480/NRE-Luc cells, 50 ng/mL TNFα, luciferase expression, read-out: NFκB inhibitory activity IC50
  IC50: 2.4 µg/mL (≈ 16.3 µM)
[2]; SW480/SV40-Luc cells, luciferase expression, read-out: SV40 promoter inhibitory activity IC50
  IC50: > 10 µg/mL

## (S)-2-chloro-6,7-dimethoxy-9,10,11,12,12a,13-hexahydro-9a-aza-cyclopenta[b]triphenylene-3-ol methanesulfonate [Compound 21]
[1]; [9]
  NFκB inhibitory activity IC50: 0.0054 µg/mL
[2]; [10]
  SV40 promoter inhibitory activity IC50: >1 µg/mL
[3]
  SW480 proliferation inhibitory action IC50: 0.0067 µg/mL
[4]
  HT-29 proliferation inhibitory action IC50: 0.0068 µg/mL
[5]
  A549 proliferation inhibitory action IC50: 0.008 µg/mL

## (S)-2-fluoro-6,7-dimethoxy-9,10,11,12,12a,13-hexahydro-9a-aza-cyclopenta[b]triphenylene-3-ol methanesulfonate [Compound 25]
[1]; [9]
  NFκB inhibitory activity IC50: 0.0016 µg/mL
[2]; [10]
  SV40 promoter inhibitory activity IC50: >1 µg/mL
[3]
  SW480 proliferation inhibitory action IC50: 0.0031 µg/mL
[4]
  HT-29 proliferation inhibitory action IC50: 0.007 µg/mL
[5]
  A549 proliferation inhibitory action IC50: 0.0026 µg/mL
